Experimental data: paper PMC2248166, “Quantitative peptide binding motifs for 19 human and mouse MHC class I molecules derived using positional scanning combinatorial peptide libraries” (Immunome Research, 2008)
pIC50: −log10 of the molar value. Where a SMILES comes first, the peptide text is derived from it.

These compounds were tested against HLA B*0801 (Homo sapiens, UniProt P01889, A93T/A95T/D138N/E176V/E187T/K202T/Q94N/R180D/S35A/V36M/Y33D/Y91F) (assay: biochemical).
Format: binding
With `CSCC[C@H](NC(=O)[C@H](CC(C)C)NC(=O)[C@H](CCCNC(=N)N)NC(=O)[C@H](CCCCN)NC(=O)[C@H](CCSC)NC(=O)[C@H](CCSC)NC(=O)[C@@H](N)CCSC)C(=O)N[C@@H](Cc1ccccc1)C(=O)N[C@@H](CCC(=O)O)C(=O)O` [3102.0672] (H-MMMKRLMFE-OH) the pIC50 was 7.12. For `CC(C)C[C@H](NC(=O)[C@@H](N)CC(C)C)C(=O)N[C@@H](CCCCN)C(=O)N[C@@H](Cc1ccccc1)C(=O)N[C@@H](CCCNC(=N)N)C(=O)N[C@H](C(=O)N[C@@H](CCC(=O)O)C(=O)N[C@@H](CO)C(=O)N[C@@H](CS)C(=O)O)C(C)C` [3102.0675] (H-LLKFRVESC-OH), the pIC50 was 7.13. `CC[C@H](C)[C@H](NC(=O)[C@@H](N)CC(N)=O)C(=O)N[C@@H](CCSC)C(=O)N1CCC[C@H]1C(=O)N[C@@H](CC(C)C)C(=O)N[C@@H](Cc1ccccc1)C(=O)N1CCC[C@H]1C(=O)N[C@H](C(=O)N[C@@H](Cc1ccccc1)C(=O)O)[C@@H](C)O` [3102.0648] (H-NIMPLFPTF-OH) gave a pIC50 of 7.32. With `CC(C)C[C@H](NC(=O)CNC(=O)[C@@H](N)CC(N)=O)C(=O)N[C@H](C(=O)N[C@@H](CCCNC(=N)N)C(=O)N[C@@H](CC(C)C)C(=O)N[C@@H](CC(N)=O)C(=O)N[C@@H](C)C(=O)N[C@@H](Cc1ccccc1)C(=O)O)C(C)C` [3102.0603] (H-NGLVRLNAF-OH) the pIC50 was 7.24. For `CSCC[C@H](NC(=O)[C@H](C)NC(=O)[C@@H](NC(=O)[C@@H](N)C(C)C)C(C)C)C(=O)N[C@@H](CCCNC(=N)N)C(=O)N[C@@H](Cc1c[nH]cn1)C(=O)N[C@@H](CC(C)C)C(=O)N[C@@H](CO)C(=O)N[C@@H](CC(C)C)C(=O)O` [3102.0557] (H-VVAMRHLSL-OH), the pIC50 was 9.01. Work on `CC[C@H](C)[C@H](NC(=O)[C@H](Cc1c[nH]cn1)NC(=O)[C@H](CC(N)=O)NC(=O)[C@H](CCCCN)NC(=O)[C@H](CCCNC(=N)N)NC(=O)[C@H](Cc1ccccc1)NC(=O)[C@H](CCCNC(=N)N)NC(=O)[C@@H](NC(=O)[C@@H](N)Cc1ccc(O)cc1)[C@@H](C)CC)C(=O)O` [3102.0888] (H-YIRFRKNHI-OH) yielded a pIC50 of 8.85. Work on `CC(C)[C@H](NC(=O)[C@H](Cc1ccccc1)NC(=O)[C@H](CS)NC(=O)[C@@H](NC(=O)[C@H](CCCCN)NC(=O)[C@H](CCCCN)NC(=O)[C@H](CCCCN)NC(=O)[C@H](CO)NC(=O)[C@@H](N)Cc1ccccc1)C(C)C)C(=O)O` [3102.0556] (H-FSKKKVCFV-OH) yielded a pIC50 of 8.22. With `CSCC[C@H](NC(=O)[C@H](Cc1ccccc1)NC(=O)CN)C(=O)N[C@@H](CCCNC(=N)N)C(=O)N[C@@H](Cc1ccccc1)C(=O)N[C@@H](Cc1ccccc1)C(=O)N[C@@H](CCC(N)=O)C(=O)N[C@@H](CC(C)C)C(=O)N[C@@H](CC(C)C)C(=O)O` [3102.0728] (H-GFMRFFQLL-OH) the pIC50 was 8.62. `CC[C@H](C)[C@H](NC(=O)[C@H](CO)NC(=O)[C@H](Cc1c[nH]cn1)NC(=O)[C@H](Cc1ccc(O)cc1)NC(=O)[C@H](CCCNC(=N)N)NC(=O)[C@@H]1CCCN1C(=O)[C@@H](N)Cc1ccccc1)C(=O)N[C@@H](CCC(=O)O)C(=O)N[C@@H](CC(C)C)C(=O)O` [3102.0626] (H-FPRYHSIEL-OH) was tested, and the pIC50 was 9.31. `CC(C)C[C@H](NC(=O)[C@H](CO)NC(=O)CNC(=O)[C@H](Cc1ccccc1)NC(=O)[C@@H](NC(=O)[C@H](CCC(N)=O)NC(=O)[C@H](CCCCN)NC(=O)[C@H](Cc1ccccc1)NC(=O)[C@@H](N)Cc1ccccc1)[C@@H](C)O)C(=O)O` [3102.0697] (H-FFKQTFGSL-OH) showed a pIC50 of 9.13. For `CSCC[C@H](NC(=O)[C@H](Cc1ccccc1)NC(=O)CNC(=O)[C@@H](N)[C@@H](C)O)C(=O)N[C@@H](CCCNC(=N)N)C(=O)N[C@@H](Cc1ccccc1)C(=O)N[C@@H](Cc1ccccc1)C(=O)N[C@@H](CCC(N)=O)C(=O)N[C@@H](CC(C)C)C(=O)O` [3102.0731] (H-TGFMRFFQL-OH), the pIC50 was 9.01. With `CC(C)C[C@H](NC(=O)[C@@H](NC(=O)[C@@H](NC(=O)[C@H](CC(N)=O)NC(=O)[C@H](Cc1ccccc1)NC(=O)[C@H](CC(C)C)NC(=O)[C@H](CCCCN)NC(=O)[C@H](CC(C)C)NC(=O)[C@@H](N)CCC(=O)O)C(C)C)[C@@H](C)O)C(=O)O` [3102.0729] (H-ELKLFNVTL-OH) the pIC50 was 8.33. Work on `CC[C@H](C)[C@H](NC(=O)[C@H](CO)NC(=O)[C@H](Cc1ccccc1)NC(=O)[C@H](CC(C)C)NC(=O)[C@@H](NC(=O)[C@H](CCCNC(=N)N)NC(=O)[C@H](CC(C)C)NC(=O)[C@@H](N)Cc1c[nH]cn1)C(C)C)C(=O)N[C@@H](Cc1ccccc1)C(=O)O` [3102.0612] (H-HLRVLFSIF-OH) yielded a pIC50 of 8.33. `CC[C@H](C)[C@H](NC(=O)[C@@H](N)CO)C(=O)N[C@@H](CCCCN)C(=O)N[C@@H](CO)C(=O)N[C@@H](CCCCN)C(=O)N[C@@H](CO)C(=O)N[C@@H](CCCNC(=N)N)C(=O)N[C@@H](CCCNC(=N)N)C(=O)N[C@@H](CC(C)C)C(=O)O` [3102.0534] (H-SIKSKSRRL-OH) gave a pIC50 of 7.52. `CC[C@H](C)[C@H](NC(=O)[C@@H]1CCCN1C(=O)[C@@H](N)CCC(=O)O)C(=O)N[C@@H](CCCCN)C(=O)N[C@@H](Cc1c[nH]cn1)C(=O)N[C@@H](CCCCN)C(=O)N[C@@H](Cc1ccc(O)cc1)C(=O)N1CCC[C@H]1C(=O)N[C@@H](CC(C)C)C(=O)O` [3102.0624] (H-EPIKHKYPL-OH) gave a pIC50 of 8.89. In the case of `CC[C@H](C)[C@H](NC(=O)[C@@H](NC(=O)[C@H](CS)NC(=O)[C@@H](NC(=O)[C@H](CCCNC(=N)N)NC(=O)[C@H](CO)NC(=O)[C@H](CCCCN)NC(=O)[C@H](CO)NC(=O)[C@@H](N)CC(N)=O)[C@@H](C)CC)C(C)C)C(=O)O` [3102.0966] (H-NSKSRICVI-OH), the pIC50 was 7.96. `CSCC[C@H](NC(=O)[C@H](C)NC(=O)[C@H](CC(C)C)NC(=O)[C@H](CO)NC(=O)[C@H](CCCCN)NC(=O)[C@H](CCSC)NC(=O)[C@H](CCCNC(=N)N)NC(=O)[C@H](CCCCN)NC(=O)[C@@H](N)CC(=O)O)C(=O)O` [3102.0560] (H-DKRMKSLAM-OH) showed a pIC50 of 8.00. With `CC[C@H](C)[C@H](NC(=O)[C@H](CCCNC(=N)N)NC(=O)[C@H](CO)NC(=O)[C@H](CCCNC(=N)N)NC(=O)[C@H](CC(C)C)NC(=O)[C@H](C)N)C(=O)N[C@@H](CCCNC(=N)N)C(=O)N[C@@H](CCC(=O)O)C(=O)N[C@@H](CC(C)C)C(=O)O` [3102.0743] (H-ALRSRIREL-OH) the pIC50 was 9.34. For `CC[C@H](C)[C@H](NC(=O)[C@H](Cc1ccc(O)cc1)NC(=O)[C@H](CCSC)NC(=O)[C@H](CC(C)C)NC(=O)[C@@H](N)CCC(=O)O)C(=O)N[C@@H](Cc1ccccc1)C(=O)N[C@@H](C)C(=O)N[C@@H](C)C(=O)N[C@@H](CC(C)C)C(=O)O` [3102.0539] (H-ELMYIFAAL-OH), the pIC50 was 7.52. With `CC[C@H](C)[C@H](NC(=O)[C@@H](NC(=O)[C@H](Cc1ccccc1)NC(=O)[C@H](CCCCN)NC(=O)[C@H](CCC(N)=O)NC(=O)[C@H](CCSC)NC(=O)[C@H](CC(=O)O)NC(=O)[C@@H](N)CO)[C@@H](C)O)C(=O)N[C@@H](CC(C)C)C(=O)O` [3102.0699] (H-SDMQKFTIL-OH) the pIC50 was 7.39. Work on `CSCC[C@H](NC(=O)[C@@H](N)CCCNC(=N)N)C(=O)N[C@@H](CCCNC(=N)N)C(=O)N[C@@H](Cc1ccccc1)C(=O)N[C@@H](CCCCN)C(=O)N[C@@H](CCCCN)C(=O)NCC(=O)N[C@@H](C)C(=O)N[C@H](C(=O)O)C(C)C` [3102.0775] (H-RMRFKKGAV-OH) yielded a pIC50 of 8.27. Work on `CSCC[C@H](NC(=O)[C@H](C)NC(=O)[C@@H](N)CCSC)C(=O)N[C@@H](Cc1ccccc1)C(=O)N[C@@H](Cc1ccc(O)cc1)C(=O)N[C@@H](C)C(=O)N[C@@H](Cc1c[nH]cn1)C(=O)N[C@@H](C)C(=O)N[C@@H](CC(C)C)C(=O)O` [3102.0776] (H-MAMFYAHAL-OH) yielded a pIC50 of 8.92. In the case of `CC(C)C[C@H](NC(=O)[C@H](Cc1ccc(O)cc1)NC(=O)[C@@H](NC(=O)[C@H](Cc1ccccc1)NC(=O)[C@H](CCCCN)NC(=O)[C@H](CC(C)C)NC(=O)[C@H](CC(C)C)NC(=O)[C@H](C)NC(=O)[C@@H](N)Cc1ccccc1)[C@@H](C)O)C(=O)O` [3102.0745] (H-FALLKFTYL-OH), the pIC50 was 8.80. `CC(C)C[C@H](NC(=O)[C@H](CO)NC(=O)[C@H](C)NC(=O)[C@H](Cc1ccccc1)NC(=O)[C@H](CCCCN)NC(=O)[C@H](C)NC(=O)[C@H](Cc1ccc(O)cc1)NC(=O)[C@@H](NC(=O)[C@@H](N)[C@@H](C)O)C(C)C)C(=O)O` [3102.0754] (H-TVYAKFASL-OH) gave a pIC50 of 8.80. For `CC[C@H](C)[C@H](NC(=O)[C@H](CC(C)C)NC(=O)[C@H](CCSC)NC(=O)[C@H](CCCNC(=N)N)NC(=O)[C@@H](NC(=O)[C@H](Cc1ccccc1)NC(=O)[C@@H](NC(=O)[C@@H](N)CO)[C@@H](C)CC)[C@@H](C)CC)C(=O)N[C@@H](CC(C)C)C(=O)O` [3102.0701] (H-SIFIRMLIL-OH), the pIC50 was 8.00. `CC[C@H](C)[C@H](NC(=O)[C@H](CCC(=O)O)NC(=O)[C@H](CCSC)NC(=O)[C@H](CCCNC(=N)N)NC(=O)[C@@H](N)CC(N)=O)C(=O)N[C@@H](Cc1ccccc1)C(=O)N[C@@H](CC(C)C)C(=O)N[C@H](C(=O)N[C@@H](CC(C)C)C(=O)O)C(C)C` [3102.0723] (H-NRMEIFLVL-OH) gave a pIC50 of 8.31. For `CSCC[C@H](NC(=O)[C@H](CCCCN)NC(=O)[C@@H](N)CCC(=O)O)C(=O)N[C@@H](CCCNC(=N)N)C(=O)N[C@@H](CCCNC(=N)N)C(=O)N[C@@H](CCC(=O)O)C(=O)N[C@@H](CCCNC(=N)N)C(=O)N[C@@H](C)C(=O)N[C@@H](C)C(=O)O` [3102.0739] (H-EKMRRERAA-OH), the pIC50 was 8.74. With `CC(C)C[C@H](NC(=O)[C@H](C)NC(=O)[C@H](CO)NC(=O)[C@H](Cc1ccccc1)NC(=O)[C@H](CCCCN)NC(=O)[C@H](CCCNC(=N)N)NC(=O)[C@H](CC(C)C)NC(=O)[C@H](Cc1ccc(O)cc1)NC(=O)[C@@H](N)CO)C(=O)O` [3102.0770] (H-SYLRKFSAL-OH) the pIC50 was 8.22. Compound `CC[C@H](C)[C@H](NC(=O)[C@@H](N)CS)C(=O)N[C@@H](CCCCN)C(=O)N[C@@H](CO)C(=O)N[C@@H](Cc1c[nH]cn1)C(=O)N[C@@H](CO)C(=O)N[C@H](C(=O)N[C@@H](CO)C(=O)N[C@@H](CC(C)C)C(=O)O)C(C)C` [3102.0647] (H-CIKSHSVSL-OH) has a pIC50 of 8.64. `CC[C@H](C)[C@H](NC(=O)[C@H](CCCNC(=N)N)NC(=O)[C@@H](NC(=O)[C@H](CCCCN)NC(=O)[C@H](CCCCN)NC(=O)[C@@H](N)CO)[C@@H](C)O)C(=O)N[C@@H](CO)C(=O)N[C@@H](CC(=O)O)C(=O)N[C@@H](CC(C)C)C(=O)O` [3102.0741] (H-SKKTRISDL-OH) was tested, and the pIC50 was 8.55.
